We go through 21 compounds from patent publication US11370803B2, “Heteroaryl plasma kallikrein inhibitors” (Takeda Pharmaceutical Company Limited, priority 2019, dated 2022).

Broadly, the EC50 is the concentration needed to bring the measured effect to its halfway point.

In this test the target is human activated kallikrein enzyme (Homo sapiens (Human), UniProt P03952). As to the kind of experiment: Inhibition of human activated plasma kallikrein, fluorogenic peptide substrate assay (500 pM enzyme format). The conditions noted are these: 500 pM activated kallikrein, 300 uM Pro-Phe-Arg-7-amido-4-methylcoumarin substrate, 30 min preincubation, 10 min reaction at RT; read-out: Primary Dose Response Assay: Average EC50. Format: biochemical. On the procedure: Inhibitory Activity of Exemplary Compounds against Plasma Kallikrein. Example compounds were evaluated for inhibition of the human activated kallikrein enzyme in two formats of an assay employing a fluorogenic peptide substrate. In one assay format, the concentrations of reagents were as follows: 20 mM Tris pH 7.5, 1 mM EDTA, 150 mM sodium chloride, 0.1% PEG-400, 0.1% Triton X-100, 500 pM activated kallikrein enzyme, 300 uM Pro-Phe-Arg-7-amido-4-methylcoumarin substrate. Prior to reaction initiation with substrate, enzyme and inhibitors were preincubated for 30 min at RT. After initiation with substrate, reactions were incubated for 10 min at RT and fluorescence emission at 460 nm from 380 nm excitation measured with a microplate reader. In another assay format, the concentrations of reagents were as follows: 20 mM Tris pH 7.5, 1 mM EDTA, 150 mM sodium chloride, 0.1% PEG-400, 0.1% Triton X-100, 5 pM activated kallikrein enzyme, 300 uM Pro-Phe-Arg-7-amido-4-methylcoumarin substrate. Prior to reaction initiation with substrate, enzyme and inhibitors were preincubated for 30 min at RT. After initiation with substrate, reactions were incubated for 18 h at RT and fluorescence emission at 460 nm from 380 nm excitation measured with a microplate reader.
Sequence of human activated kallikrein enzyme (P03952 391-638): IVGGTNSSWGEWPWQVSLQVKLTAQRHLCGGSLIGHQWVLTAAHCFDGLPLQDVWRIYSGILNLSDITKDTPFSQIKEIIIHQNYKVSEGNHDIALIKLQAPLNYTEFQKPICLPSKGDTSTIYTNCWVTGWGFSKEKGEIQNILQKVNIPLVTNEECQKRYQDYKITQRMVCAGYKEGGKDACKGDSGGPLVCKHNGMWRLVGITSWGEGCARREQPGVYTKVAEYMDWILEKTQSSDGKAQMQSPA
Sequence of human activated kallikrein enzyme (P03952 20-390 partner): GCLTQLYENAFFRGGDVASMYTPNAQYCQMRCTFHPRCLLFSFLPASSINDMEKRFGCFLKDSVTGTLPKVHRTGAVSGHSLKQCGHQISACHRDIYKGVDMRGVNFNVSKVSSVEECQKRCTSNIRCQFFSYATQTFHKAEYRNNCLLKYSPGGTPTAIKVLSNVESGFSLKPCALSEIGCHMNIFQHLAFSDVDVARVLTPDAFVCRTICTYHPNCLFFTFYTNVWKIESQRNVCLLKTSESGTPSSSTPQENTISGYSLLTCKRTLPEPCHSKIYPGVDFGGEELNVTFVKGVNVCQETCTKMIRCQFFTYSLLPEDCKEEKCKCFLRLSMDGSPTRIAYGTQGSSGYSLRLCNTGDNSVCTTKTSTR
Table 1 provides the results of the assay in the format with 500 pM activated kallikrein assay. For the compounds listed in Table 1, the EC50 values are reported according to the following ranges: A≤50 nM; 50 nM<B≤200 nM; 200 nM<C≤1000 nM; 1000 nM<D.
For the compound `Fc1c(Cl)ccn2cnc(C(NCc3cn(Cc4cn5cc(C6CC6)ccc5n4)nn3)C(F)(F)F)c12` (stereo not drawn) [Compound I-2, 1-(7-chloro-8-fluoroimidazo[1,5-a]pyridin-1-yl)-N-((1-((6-cyclopropylimidazo[1,2-a]pyridin-2-yl)methyl)-1H-1,2,3-triazol-4-yl)methyl)-2,2,2-trifluoroethan-1-amine], the 50% effective concentration (EC50) is above 1 µM.

As to `O=C(NCc1ncn2ccc(Cl)c(F)c12)c1cnc2n1C(c1cn3cc(C4CC4)ccc3n1)CC2` (stereo not drawn) [Compound I-9, N-((7-chloro-8-fluoroimidazo[1,5-a]pyridin-1-yl)methyl)-5-(6-cyclopropylimidazo[1,2-a]pyridin-2-yl)-6,7-dihydro-5H-pyrrolo[1,2-a]imidazole-3-carboxamide], the half-maximal effective concentration (EC50) was 0.2 to 1 µM.

On to `O=C(O)c1cc(C2CC2)cn2cc(Cn3cc(CNCc4ncn5ccc(Cl)c(F)c45)nn3)nc12` [Compound I-15, 2-((4-((((7-chloro-8-fluoroimidazo[1,5-a]pyridin-1-yl)methyl)amino)methyl)-1H-1,2,3-triazol-1-yl)methyl)-6-cyclopropylimidazo[1,2-a]pyridine-8-carboxylic Acid], for which the concentration giving a half-maximal response (EC50) was in the range of 0.2 to 1 µM.

Regarding `O=C(O)CCc1cc(C2CC2)cn2cc(Cn3cc(CNCc4ncn5ccc(Cl)c(F)c45)nn3)nc12` [Compound I-17b, 3-(2-((4-((((7-chloro-8-fluoroimidazo[1,5-a]pyridin-1-yl)methyl)amino)methyl)-1H-1,2,3-triazol-1-yl)methyl)-6-cyclopropylimidazo[1,2-a]pyridin-8-yl)propanoic acid], the EC50 is at most 0.05 µM.

`Fc1c(Cl)ccn2cnc(CNC(c3cnn(Cc4cn5cc(C6CC6)ccc5n4)c3)C(F)(F)F)c12` (stereo not drawn) [Compound I-16, N-((7-chloro-8-fluoroimidazo[1,5-a]pyridin-1-yl)methyl)-1-(1-((6-cyclopropylimidazo[1,2-a]pyridin-2-yl)methyl)-1H-pyrazol-4-yl)-2,2,2-trifluoroethan-1-amine]: the concentration giving a half-maximal response (EC50) is at most 0.05 µM.

Regarding `CC(NS(=O)(=O)c1ncn2ccc(Cl)c(F)c12)c1cn(Cc2cn3cc(C4CC4)ccc3n2)nn1` (stereo not drawn) [Compound I-7, 7-chloro-N-(1-(1-((6-cyclopropylimidazo[1,2-a]pyridin-2-yl)methyl)-1H-1,2,3-triazol-4-yl)ethyl)-8-fluoroimidazo[1,5-a]pyridine-1-sulfonamide], the concentration giving a half-maximal response (EC50) was at most 0.05 µM.

Regarding `O=C(NCc1ncn2ccc(Cl)c(F)c12)c1cn2c(n1)CCC2c1cn2cc(C3CC3)ccc2n1` (stereo not drawn) [Compound I-8, N-((7-chloro-8-fluoroimidazo[1,5-a]pyridin-1-yl)methyl)-5-(6-cyclopropylimidazo[1,2-a]pyridin-2-yl)-6,7-dihydro-5H-pyrrolo[1,2-a]imidazole-2-carboxamide], the EC50 is at most 0.05 µM.

As for `CC(NC(=O)Cc1ncn2ccc(Cl)cc12)c1cn(Cc2cn3cc(C4CC4)ccc3n2)nn1` (stereo not drawn) [Compound I-13, 2-(7-chloroimidazo[1,5-a]pyridin-1-yl)-N-(1-(1-((6-cyclopropylimidazo[1,2-a]pyridin-2-yl)methyl)-1H-1,2,3-triazol-4-yl)ethyl)acetamide], the EC50 was at most 0.05 µM.

`O=C(NCc1cn(Cc2cn3cc(C4CC4)ccc3n2)nn1)c1ncn2ccc(Cl)c(F)c12` [Compound I-3, 7-chloro-N-((1-((6-cyclopropylimidazo[1,2-a]pyridin-2-yl)methyl)-1H-1,2,3-triazol-4-yl)methyl)-8-fluoroimidazo[1,5-a]pyridine-1-carboxamide]: the concentration for a half-maximal effect (EC50) lay in the range of 0.05 to 0.2 µM.

As for `O=S(=O)(NCc1cn(Cc2cn3cc(C4CC4)ccc3n2)nn1)c1ncn2ccc(Cl)c(F)c12` [Compound I-6, 7-chloro-N-((1-((6-cyclopropylimidazo[1,2-a]pyridin-2-yl)methyl)-1H-1,2,3-triazol-4-yl)methyl)-8-fluoroimidazo[1,5-a]pyridine-1-sulfonamide], the EC50 was at most 0.05 µM.

Turning to `CC(NCc1ncn2ccc(Cl)c(F)c12)c1cn(Cc2cn3cc(C4CC4)ccc3n2)nn1` (stereo not drawn) [Compound I-12, N-((7-chloro-8-fluoroimidazo[1,5-a]pyridin-1-yl)methyl)-1-(1-((6-cyclopropylimidazo[1,2-a]pyridin-2-yl)methyl)-1H-1,2,3-triazol-4-yl)ethan-1-amine], the EC50 was in the range of 0.05 to 0.2 µM.

Regarding `COC(=O)c1cc(C2CC2)cn2cc(Cn3cc(CNCc4ncn5ccc(Cl)c(F)c45)nn3)nc12` [Compound I-14, Methyl 2-((4-((((7-chloro-8-fluoroimidazo[1,5-a]pyridin-1-yl)methyl)amino)methyl)-1H-1,2,3-triazol-1-yl)methyl)-6-cyclopropylimidazo[1,2-a]pyridine-8-carboxylate], the concentration for a half-maximal effect (EC50) is at most 0.05 µM.

With `Fc1c(Cl)ccn2cnc(CNCc3cn(Cc4cn5cc(C6CC6)cc(-n6cnnc6)c5n4)nn3)c12` [Compound I-18, 1-(7-chloro-8-fluoroimidazo[1,5-a]pyridin-1-yl)-N-((1-((6-cyclopropyl-8-(4H-1,2,4-triazol-4-yl)imidazo[1,2-a]pyridin-2-yl)methyl)-1H-1,2,3-triazol-4-yl)methyl)methanamine], the EC50 is at most 0.05 µM.

Turning to `O=S(=O)(NCc1ncn2ccc(Cl)c(F)c12)c1cnn(Cc2cn3cc(C4CC4)ccc3n2)c1` [Compound I-4, N-((7-chloro-8-fluoroimidazo[1,5-a]pyridin-1-yl)methyl)-1-((6-cyclopropylimidazo[1,2-a]pyridin-2-yl)methyl)-1H-pyrazole-4-sulfonamide], the concentration giving a half-maximal response (EC50) lay in the range of 0.2 to 1 µM.

Turning to `CN1CCN(c2cc(C3CC3)cn3cc(Cn4cc(C(=O)NCc5ncn6ccc(Cl)c(F)c56)nn4)nc23)CC1` [Compound I-20, N-((7-chloro-8-fluoroimidazo[1,5-a]pyridin-1-yl)methyl)-1-((6-cyclopropyl-8-(4-methylpiperazin-1-yl)imidazo[1,2-a]pyridin-2-yl)methyl)-1H-1,2,3-triazole-4-carboxamide], the EC50 was at most 0.05 µM.

For `Fc1c(Cl)ccn2cnc(CNCc3cn(Cc4cn5cc(C6CC6)ccc5n4)nn3)c12` [Compound I-11, 1-(7-chloro-8-fluoroimidazo[1,5-a]pyridin-1-yl)-N-((1-((6-cyclopropylimidazo[1,2-a]pyridin-2-yl)methyl)-1H-1,2,3-triazol-4-yl)methyl)methanamine], the EC50 was at most 0.05 µM.

Regarding `O=S(=O)(NCc1ncn2ccc(Cl)c(F)c12)c1cn(Cc2cn3cc(C4CC4)ccc3n2)nn1` [Compound I-5, N-((7-chloro-8-fluoroimidazo[1,5-a]pyridin-1-yl)methyl)-1-((6-cyclopropylimidazo[1,2-a]pyridin-2-yl)methyl)-1H-1,2,3-triazole-4-sulfonamide], the EC50 fell in the range of 0.2 to 1 µM.

Regarding `CCOC(=O)CCc1cc(C2CC2)cn2cc(Cn3cc(CNCc4ncn5ccc(Cl)c(F)c45)nn3)nc12` [Compound I-17a, Ethyl 3-(2-((4-((((7-chloro-8-fluoroimidazo[1,5-a]pyridin-1-yl)methyl)amino)methyl)-1H-1,2,3-triazol-1-yl)methyl)-6-cyclopropylimidazo[1,2-a]pyridin-8-yl)propanoate], the half-maximal effective concentration (EC50) is at most 0.05 µM.

For the compound `O=C(Cc1ncn2ccc(Cl)cc12)NC(c1cnn(Cc2cn3cc(C4CC4)ccc3n2)c1)C(F)(F)F` (stereo not drawn) [Compound I-19, 2-(7-chloroimidazo[1,5-a]pyridin-1-yl)-N-(1-(1-((6-cyclopropylimidazo[1,2-a]pyridin-2-yl)methyl)-1H-pyrazol-4-yl)-2,2,2-trifluoroethyl)acetamide], the EC50 is 0.05 to 0.2 µM.

As to `O=C(Cc1ncn2ccc(Cl)cc12)NCc1cn(Cc2cn3cc(C4CC4)ccc3n2)nn1` [Compound I-1, 2-(7-chloroimidazo[1,5-a]pyridin-1-yl)-N-((1-((6-cyclopropylimidazo[1,2-a]pyridin-2-yl)methyl)-1H-1,2,3-triazol-4-yl)methyl)acetamide], the half-maximal effective concentration (EC50) is at most 0.05 µM.

`N#Cc1ccn2cnc(CNC(=O)c3cnn(Cc4cn5cc(C6CC6)ccc5n4)c3)c2c1` [Compound I-10, N-((7-cyanoimidazo[1,5-a]pyridin-1-yl)methyl)-1-((6-cyclopropylimidazo[1,2-a]pyridin-2-yl)methyl)-1H-pyrazole-4-carboxamide]: the 50% effective concentration (EC50) is at most 0.05 µM.
